Data from PubChem BioAssay (NCI).
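Growth conditions: 96-well plates. Treatment: test compound, 48 hours, 5 concentrations. Analysis: linear interpolation between bracketing concentrations; unreached endpoints set to highest concentration. GI50 = concentration required for 50% inhibition of growth. The concentration for full growth arrest is given as TGI.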

Experiments:
Experiment in all cases: inhibition of tumour cell growth, NCI panel, 48 h
786-0 renal = tested on: 786-0 renal
HOP-92 NSCLC = tested on: HOP-92 NSCLC
IGROV1 ovarian = tested on: IGROV1 ovarian
MOLT-4 leukemia = tested on: MOLT-4 leukemia
NCI-H522 lung = tested on: NCI-H522 lung
SK-MEL-2 melanoma = tested on: SK-MEL-2 melanoma
SK-MEL-28 melanoma = tested on: SK-MEL-28 melanoma
SR leukemia = tested on: SR leukemia
HCT-15 colon = tested on: HCT-15 colon
BT-549 breast = tested on: BT-549 breast

SMILES | TGI (786-0 renal) [µM] | TGI (HOP-92 NSCLC) [µM] | TGI (IGROV1 ovarian) [µM] | TGI (MOLT-4 leukemia) [µM] | TGI (NCI-H522 lung) [µM] | TGI (SK-MEL-2 melanoma) [µM] | TGI (SK-MEL-28 melanoma) [µM] | TGI (SR leukemia) [µM] | TGI (HCT-15 colon) [µM] | GI50 (786-0 renal) [µM] | GI50 (BT-549 breast) [µM] | TGI (BT-549 breast) [µM] | GI50 (HCT-15 colon) [µM] | GI50 (IGROV1 ovarian) [µM] | GI50 (MOLT-4 leukemia) [µM] | GI50 (NCI-H522 lung) [µM] | GI50 (SK-MEL-2 melanoma) [µM] | GI50 (SK-MEL-28 melanoma) [µM] | GI50 (HOP-92 NSCLC) [µM] | GI50 (SR leukemia) [µM]
COc1ccc(C2C(N)=NCC2c2ccccn2)cc1 (stereo not drawn) | > 100 | > 100 | > 100 | > 100 | > 100 | > 100 | > 100 | > 100 | – | – | – | – | – | – | – | – | – | – | – | –
NS(=O)(=O)c1ccc(NC(=O)c2cccc3c(=O)c4ccccc4[nH]c23)cc1 | > 100 | > 100 | > 100 | > 100 | 65.4 | > 100 | > 100 | > 100 | > 100 | – | – | – | – | – | – | – | – | – | – | –
CC1CCCC(C(=O)/C(=C/c2cccc(Cl)c2)C(=O)C(=O)O)C1 (stereo not drawn) | 33 | > 100 | 83.5 | 49.8 | 24.7 | – | > 100 | – | 28.2 | – | – | – | – | – | – | – | – | – | – | –
O=C1c2ccccc2-c2c1c1ccccc1c(=O)n2CCNCCCNCCn1c2c(c3ccccc3c1=O)C(=O)c1ccccc1-2 | 0.326 | – | > 50 | > 50 | 14.1 | 2.2 | > 50 | – | 0.334 | 0.0539 | 0.629 | 1.9 | 0.0221 | 1.19 | < 0.005 | 2.91 | 0.514 | 0.0667 | – | –
Cc1ccc(-c2nc(C(Cl)Cl)n3nc(-c4ccccc4)cc3n2)cc1 | 2.17 | 1.35 | > 100 | > 100 | > 100 | – | – | – | 1.12 | 0.676 | > 100 | > 100 | 0.313 | 0.711 | > 100 | > 100 | – | – | 0.281 | –
Cc1ccc(C(=O)CC(Sc2cccc(Cl)c2Cl)c2ccc(Cl)cc2)cc1C (stereo not drawn) | 36.2 | – | 41.2 | > 100 | 61.9 | 39 | 44.8 | > 100 | – | 17.8 | 24.5 | 46.9 | – | 19.7 | 33 | 26.2 | 20.2 | 20.5 | – | 7.23
N#Cc1c(N)c(C(=O)O)nn(-c2cccc(C(F)(F)F)c2)c1=O | > 100 | > 100 | > 100 | > 100 | > 100 | > 100 | > 100 | > 100 | > 100 | – | – | – | – | – | – | – | – | – | – | –
COC(=O)NC/C=C\c1nc(CC/C=C\C(=O)OC2CC3CC(=O)O[C@@H](/C=C/CC(C)C)C[C@@H]4CCC(C)C(C[C@@H](OC)CC(C2)O3)O4)co1 (stereo partly drawn) | 39.9 | 2.38 | – | – | 87.7 | 94.1 | > 100 | – | 20.7 | < 0.01 | 9.93 | > 100 | < 0.01 | – | – | < 0.01 | 12.8 | 26.5 | < 0.01 | –
COC(=O)c1c(O)ccc2[nH]c(C)c(C#N)c12 | > 100 | 91.9 | > 100 | > 100 | > 100 | > 100 | > 100 | – | > 100 | 31.6 | 64 | > 100 | 42.1 | 67.2 | 26.7 | 83.4 | > 100 | 65.9 | 30.3 | –
C=C1C(=O)O[C@H]2[C@H]1CC/C(COC(=O)c1cc3cc(OC)ccc3[nH]1)=C\CC[C@@]1(C)O[C@@H]21 | 2.68 | 1.83 | 3.17 | 5.21 | 2.28 | 3.05 | 2.61 | – | 1.6 | 1.27 | 1.06 | 2.86 | 0.323 | 1.48 | 1.32 | 0.701 | 1.6 | 1.23 | 0.445 | –
Oc1c2c(c(O)c3ccccc13)=N[C@@H](c1ccccc1)[C@H](c1ccccc1)N=2 | > 100 | > 100 | > 100 | > 100 | > 100 | > 100 | > 100 | > 100 | > 100 | – | – | – | – | – | – | – | – | – | – | –
CC/C=C\C/C=C\C1CC(=O)NCCCNCCCCN1 (stereo not drawn) | > 100 | > 100 | – | – | > 100 | > 100 | > 100 | > 100 | – | – | – | – | – | – | – | – | – | – | – | –
COc1cc2c3c(n(CCCN4CCC(N)CC4)c(=O)c2cc1OC)-c1cc2c(cc1C3=O)OCO2 | 2.38 | 1.5 | 16 | 1.89 | 21.7 | 24.2 | 2.9 | – | 6.01 | 0.763 | 2.41 | 9.84 | 1.01 | 1.7 | 0.0456 | 3.4 | 3.68 | 0.983 | 0.202 | –
C=C(COC(C)=O)CC(/C=C(\C)CCC=C(C)C)OC(C)=O (stereo not drawn) | > 100 | > 100 | > 100 | > 100 | > 100 | > 100 | > 100 | – | > 100 | – | – | – | – | – | – | – | – | – | – | –
Cn1c(N)nc2c(nc(OCc3ccccc3)n2C2OC(CO)C(O)C2O)c1=O (stereo not drawn) | > 100 | > 100 | > 100 | > 100 | > 100 | > 100 | > 100 | > 100 | – | – | – | – | – | – | – | – | – | – | – | –
O=c1c2ccccc2c2c3c1cccc3c1cccc3c(=O)c4ccccc4c2c31 | > 100 | > 100 | > 100 | > 100 | > 100 | > 100 | > 100 | > 100 | > 100 | – | – | – | – | – | – | – | – | – | – | –
O=C(Nc1ccc(S(=O)(=O)N[C@@H](C(=O)O)c2ccccc2)cc1)c1ccc(F)cc1 | > 100 | > 100 | > 100 | > 100 | > 100 | > 100 | > 100 | – | > 100 | – | – | – | – | – | – | – | – | – | – | –
O=C1c2ccccc2-c2cccc3ccc(Cc4ccccc4)c1c23 | > 100 | > 100 | > 100 | > 100 | > 100 | > 100 | > 100 | – | > 100 | – | – | – | – | – | – | – | – | – | – | –
